In patent publication US20250092010A1, “DIHYDRO-2H-ISOINDOLE ESTER COMPOUND” (Shanghai Maius Pharmaceutical Co. Ltd., priority 2021, published 2025):

Tests used:
[1] = Pharmacokinetic assays after oral gavage administration to rats; type: in vivo, male SD rats; parameters: Tmax / AUC(0-∞): concentration or dose not given beside the values; AUMC(0-t) / AUMC(0-∞): unit not given here; conditions: for average retention time / time to peak concentration / AUC(0-∞) / AUMC(0-t) / AUMC(0-∞) / CLz/F / Cmax / MRT(0-t) / MRT(0-∞) / Tmax / VRT(0-t) / VRT(0-∞) / t½z / AUC(0-t): active metabolite; for AUC value of the active metabolite equivalent to % of that of the existing drugs: existing drugs administered at the same molar amount; for AUC(0-∞) / AUMC(0-t) / AUMC(0-∞) / CLz/F / Cmax / MRT(0-t) / MRT(0-∞) / Tmax / VRT(0-t) / VRT(0-∞) / t½z / AUC(0-t): plasma, oral gavage, male SD rats; for AUC(0-t): suspension in 0.5% CMC-Na
Method: Instruments: ultra high performance liquid chromatography (Acquity UPLC, Waters) system; triple quadrupole mass spectrometer (Qtrap 5500, Sciex); high-speed refrigerated centrifuge (5430R, Eppendorf).
Chromatography Condition: Column: 2.1×50 mm (1.7 μm, BEH C18, Waters); Column Temperature: 45° C.; Mobile Phase: 0.1% aqueous solution of formic acid (A)/acetonitrile; Gradient: see the table below: […]
Mass Spectrometry Condition: Mode: positive ion multiple reaction monitoring (MRM); Curtain Gas: 45 psi; Gas 1:45 psi; Gas 2:45 psi; Ion Source Temperature: 500° C.; Ion Source Voltage: 5000 V. Precursor ions (Q1), product ions (Q3) and collision energy (CE) of some compounds are listed in the table below:
Experimental Animals: male SD rats, 6 in each group, weighing 200-220 grams, fasting overnight before experimentation.
Preparation of Drugs: lenalidomide, as a reference drug, and the test compounds (Compounds 1-10) were accurately weighed and dispensed in 0.5% CMC-Na solutions, resulting in suspensions.
Drug Administration to and Blood Collection from Animals: the drugs were oral gavage administered to the rats, and 100-μl blood samples were taken before administration and 10 min, 20 min, 40 min, 1 h, 1.5 h, 2 h, 3 h, 5 h, 8 h, 12 h, 21 h, 24 h and 30 h after administration. Each sample was placed in an ice bath, centrifuged for plasma collection, frozen and stored.
Plasma drug concentration Data and Calculation of Pharmacokinetic Parameters: Plasma drug concentration data was processed using MultiQuan 3.0 (Sciex), and pharmacokinetic parameters were calculated using DAS 2.0 software. Plasma drug concentrations were measured in ug/L.

[2] = patients, cited from earlier work

CC(C)OC(=O)Nc1cccc2c1CN(C1CCC(=O)NC1=O)C2=O (centres unmarked) [Compound 1]
average retention time [1]: 4.5 h
time to peak concentration [1]: 0.8 h
AUC value of the active metabolite equivalent to % of that of the existing drugs [1]: 45%
AUC(0-∞) [1]: 3889.6 ± 435.6 µg·h/L
AUMC(0-t) [1]: 32705.8 ± 3125.3
AUMC(0-∞) [1]: 33484.2 ± 3040.7
CLz/F [1]: 4.3 ± 1 L/h/kg
Cmax [1]: 543.6 ± 68.5 µg/L
MRT(0-t) [1]: 4.5 ± 0.7 h
MRT(0-∞) [1]: 4.6 ± 0.6 h
Tmax [1]: 0.8 ± 0.4 h
VRT(0-t) [1]: 13 ± 2.2 h^2
VRT(0-∞) [1]: 14.3 ± 2.1 h^2
t½z [1]: 2.8 ± 0.3 h
AUC(0-t) [1]: 3822 ± 424.5 µg·h/L

CCCCCCOC(=O)Nc1cccc2c1CN(C1CCC(=O)NC1=O)C2=O (centres unmarked) [Compound 5]
AUC(0-∞) [1]: 1257 ± 209.6 µg·h/L
AUMC(0-t) [1]: 8749 ± 352.6
AUMC(0-∞) [1]: 8954 ± 336.4
CLz/F [1]: 4.2 ± 0.9 L/h/kg
Cmax [1]: 158 ± 31.1 µg/L
MRT(0-t) [1]: 4 ± 0.5 h
MRT(0-∞) [1]: 1.1 ± 0.6 h
Tmax [1]: 4 ± 0.5 h
VRT(0-t) [1]: 11 ± 1.8 h^2
VRT(0-∞) [1]: 11.8 ± 2.1^ h^2
t½z [1]: 3.0 ± 0.3 h
AUC(0-t) [1]: 1022 ± 214.5 µg·h/L

Cc1oc(=O)oc1COC(=O)Nc1cccc2c1CN(C1CCC(=O)NC1=O)C2=O (centres unmarked) [Compound 6]
average retention time [1]: 8.6 h
time to peak concentration [1]: 7 h
AUC value of the active metabolite equivalent to % of that of the existing drugs [1]: 61%
AUC(0-∞) [1]: 5229.3 ± 755.1 µg·h/L
AUMC(0-t) [1]: 44683.6 ± 4956.6
AUMC(0-∞) [1]: 45199.7 ± 4922.6
CLz/F [1]: 5.9 ± 1 L/h/kg
Cmax [1]: 405.4 ± 89.8 µg/L
MRT(0-t) [1]: 8.6 ± 0.6 h
MRT(0-∞) [1]: 8.7 ± 0.6 h
Tmax [1]: 7 ± 1.5 h
VRT(0-t) [1]: 20 ± 2.5 h^2
VRT(0-∞) [1]: 21.8 ± 2.8 h^2
t½z [1]: 2.9 ± 0.4 h
AUC(0-t) [1]: 5217 ± 754.8 µg·h/L

CCCCCCCCOC(=O)Nc1cccc2c1CN(C1CCC(=O)NC1=O)C2=O (centres unmarked) [Compound 7]
AUC(0-∞) [1]: 584.3 ± 50.3 µg·h/L
AUMC(0-t) [1]: 3965 ± 415.1
AUMC(0-∞) [1]: 4123 ± 446.1
CLz/F [1]: 4.1 ± 1.1 L/h/kg
Cmax [1]: 135 ± 23.0 µg/L
MRT(0-t) [1]: 3.8 ± 0.7 h
MRT(0-∞) [1]: 3.8 ± 0.8 h
Tmax [1]: 3.5 ± 0.8 h
VRT(0-t) [1]: 10 ± 1.3 h^2
VRT(0-∞) [1]: 10.5 ± 1.3 h^2
t½z [1]: 3.1 ± 0.2 h
AUC(0-t) [1]: 503.2 ± 42.6 µg·h/L

CCCCCCCCCCCOC(=O)Nc1cccc2c1CN(C1CCC(=O)NC1=O)C2=O (centres unmarked) [Compound 8]
AUC(0-∞) [1]: 421.5 ± 55.6 µg·h/L
AUMC(0-t) [1]: 3596 ± 401.3
AUMC(0-∞) [1]: 3689 ± 411.6
CLz/F [1]: 3.8 ± 0.9 L/h/kg
Cmax [1]: 105.3 ± 24.1 µg/L
MRT(0-t) [1]: 3.8 ± 0.5 h
MRT(0-∞) [1]: 3.9 ± 0.5 h
Tmax [1]: 3.8 ± 1.1 h
VRT(0-t) [1]: 9.8 ± 1.5 h^2
VRT(0-∞) [1]: 9.9 ± 1.6 h^2
t½z [1]: 2.9 ± 0.3 h
AUC(0-t) [1]: 489.4 ± 50.3 µg·h/L

CCCCCCCCCCCCCCCCCCOC(=O)Nc1cccc2c1CN(C1CCC(=O)NC1=O)C2=O (centres unmarked) [Compound 9]
AUC(0-∞) [1]: 456 ± 48.0 µg·h/L
AUMC(0-t) [1]: 3126 ± 298.1
AUMC(0-∞) [1]: 3360 ± 318.6
CLz/F [1]: 4.2 ± 1.0 L/h/kg
Cmax [1]: 95.6 ± 22.2 µg/L
MRT(0-t) [1]: 3.5 ± 0.6 h
MRT(0-∞) [1]: 3.6 ± 0.7 h
Tmax [1]: 4.1 ± 0.8 h
VRT(0-t) [1]: 10 ± 1.5 h^2
VRT(0-∞) [1]: 10.2 ± 1.5 h^2
t½z [1]: 3.0 ± 0.4 h
AUC(0-t) [1]: 402.5 ± 51.6 µg·h/L

CCC(CC)COC(=O)Nc1cccc2c1CN(C1CCC(=O)NC1=O)C2=O (centres unmarked) [Compound 10]
AUC(0-∞) [1]: 1765 ± 226.3 µg·h/L
AUMC(0-t) [1]: 13691 ± 587.2
AUMC(0-∞) [1]: 14002 ± 589.6
CLz/F [1]: 3.9 ± 0.8 L/h/kg
Cmax [1]: 163.2 ± 26.4 µg/L
MRT(0-t) [1]: 5.2 ± 0.7 h
MRT(0-∞) [1]: 5.2 ± 0.7 h
Tmax [1]: 5 ± 0.9 h
VRT(0-t) [1]: 14 ± 2.1 h^2
VRT(0-∞) [1]: 14.2 ± 2.2 h^2
t½z [1]: 3.1 ± 0.5 h
AUC(0-t) [1]: 1568 ± 205.4 µg·h/L

Nc1cccc2c1CN(C1CCC(=O)NC1=O)C2=O (centres unmarked) [reference drug, lenalidomide]
myelosuppression grade ([2]; 50 mg per day, 28th day of treatment): Grade 3 myelosuppression
maximum tolerated dose (MTD) ([2]; clinical study): 25 mg per day
